Data published in ChEMBL document CHEMBL3091401, “Discovery of a potent respiratory syncytial virus RNA polymerase inhibitor” (Bioorg Med Chem Lett, 2013).
Converted amounts (≈) assume the structure as drawn.

System: Respiratory syncytial virus
Assay: Antiviral activity against Respiratory syncytial virus A2 infected in human Hep2 cells after 3 days by ELISA
Format: functional, organism-based
Details: A2, HEp-2, 72 h
Compound `O=C(NC1CC1)c1cc2c(s1)-c1ccccc1N(C(=O)c1ccc(NC(=O)c3cccnc3N3CCC4(CCOCC4)CC3)cc1)CC2` has an EC50 of 0.03 µM.
With `O=C(NC1CC1)c1cc2c(s1)-c1ccccc1N(C(=O)c1ccc(NC(=O)c3cccnc3N3CC4(CCOCC4)C3)cc1)CC2` the EC50 was 0.01 µM.
With `O=C(NC1CC1)c1cc2c(s1)-c1ccccc1N(C(=O)c1ccc(NC(=O)c3ccncc3N3CCC4(CC3)COC4)cc1)CC2` the EC50 was less than 0.21 µM.
For `O=C(NC1CC1)c1cc2c(s1)-c1ccccc1N(C(=O)c1ccc(NC(=O)c3cnccc3N3CCC4(CC3)COC4)cc1)CC2`, the EC50 was 0.68 µM.
In the case of `O=C(NC1CC1)c1cc2c(s1)-c1ccccc1N(C(=O)c1ccc(NC(=O)c3ncccc3N3CCC4(CC3)COC4)cc1)CC2`, the EC50 is reported as 0.47 µM.
`O=C(NC1CC1)c1cc2c(s1)-c1ccccc1N(C(=O)c1ccc(NC(=O)c3ccccc3N3CCC4(CC3)COC4)cc1)CC2` showed an EC50 of less than 0.21 µM.
With `COc1ccc(C(=O)Nc2ccc(C(=O)N3CCc4cc(C(=O)NC5CC5)sc4-c4ccccc43)cc2)c(N2CCC3(CC2)COC3)n1` the EC50 was less than 0.21 µM.
For `O=C(NC1CC1)c1cc2c(s1)-c1ccccc1N(C(=O)c1ccc(NC(=O)c3cccnc3N3CCCC3)nc1)CC2`, the EC50 was greater than 50 µM.
For `O=C(NC1CC1)c1cc2c(s1)-c1cnccc1N(C(=O)c1ccc(NC(=O)c3cccnc3N3CCCC3)cc1)CC2`, the EC50 was 1.1 µM.
In the case of `O=C(NC1CC1)c1cc2c(s1)-c1cccnc1N(C(=O)c1ccc(NC(=O)c3cccnc3N3CCCC3)cc1)CC2`, the EC50 is reported as 7.8 µM.
Compound `O=C(NC1CC1)c1cc2n(n1)CCN(C(=O)c1ccc(NC(=O)c3cccnc3N3CCCC3)cc1)c1ccccc1-2` has an EC50 of 20 µM.
With `O=C(NC1CC1)c1cn2c(n1)-c1ccccc1N(C(=O)c1ccc(NC(=O)c3cccnc3N3CCCC3)cc1)CC2` the EC50 was 50 µM.
With `O=C(NC1CC1)c1cc2c(s1)-c1ccccc1N(C(=O)c1ccc(NC(=O)c3cccnc3N3CCOCC3)cc1)CC2` the EC50 was 0.23 µM.

System: not listed separately
Assay: Cytotoxicity against hamster BHK21 cells
Format: cell-based, Mesocricetus auratus, BHK-21
Details: not given
Compound `O=C(NC1CC1)c1cc2c(s1)-c1ccccc1N(C(=O)c1ccc(NC(=O)c3cccnc3N3CCCC3)nc1)CC2` has a CC50 greater than 50 µM.
With `O=C(NC1CC1)c1cc2c(s1)-c1cnccc1N(C(=O)c1ccc(NC(=O)c3cccnc3N3CCCC3)cc1)CC2` the CC50 was greater than 50 µM.
`O=C(NC1CC1)c1cc2c(s1)-c1cccnc1N(C(=O)c1ccc(NC(=O)c3cccnc3N3CCCC3)cc1)CC2` showed a CC50 greater than 50 µM.
With `O=C(NC1CC1)c1cc2n(n1)CCN(C(=O)c1ccc(NC(=O)c3cccnc3N3CCCC3)cc1)c1ccccc1-2` the CC50 was greater than 50 µM.
In the case of `O=C(NC1CC1)c1cn2c(n1)-c1ccccc1N(C(=O)c1ccc(NC(=O)c3cccnc3N3CCCC3)cc1)CC2`, the CC50 is reported as greater than 50 µM.

System: Respiratory syncytial virus
Assay: Antiviral activity against Respiratory syncytial virus B-Washington infected in human Hep2 cells after 3 days by ELISA
Format: functional, organism-based
Details: HEp-2, 72 h
In the case of `O=C(NC1CC1)c1cc2c(s1)-c1ccccc1N(C(=O)c1ccc(NC(=O)c3cccnc3N3CCC4(CCOCC4)CC3)cc1)CC2`, the EC50 is reported as 2.2 µM.
With `O=C(NC1CC1)c1cc2c(s1)-c1ccccc1N(C(=O)c1ccc(NC(=O)c3cccnc3N3CC4(CCOCC4)C3)cc1)CC2` the EC50 was 0.5 µM.
For `O=C(NC1CC1)c1cc2c(s1)-c1ccccc1N(C(=O)c1ccc(NC(=O)c3ccncc3N3CCC4(CC3)COC4)cc1)CC2`, the EC50 was 5.1 µM.
For `O=C(NC1CC1)c1cc2c(s1)-c1ccccc1N(C(=O)c1ccc(NC(=O)c3cnccc3N3CCC4(CC3)COC4)cc1)CC2`, the EC50 was 14 µM.
`O=C(NC1CC1)c1cc2c(s1)-c1ccccc1N(C(=O)c1ccc(NC(=O)c3ncccc3N3CCC4(CC3)COC4)cc1)CC2` showed an EC50 of 49 µM.
`O=C(NC1CC1)c1cc2c(s1)-c1ccccc1N(C(=O)c1ccc(NC(=O)c3ccccc3N3CCC4(CC3)COC4)cc1)CC2` showed an EC50 greater than 50 µM.
`COc1ccc(C(=O)Nc2ccc(C(=O)N3CCc4cc(C(=O)NC5CC5)sc4-c4ccccc43)cc2)c(N2CCC3(CC2)COC3)n1` gave an EC50 of 1.8 µM.
Work on `O=C(NC1CC1)c1cc2c(s1)-c1ccccc1N(C(=O)c1ccc(NC(=O)c3cccnc3N3CCCC3)nc1)CC2` yielded an EC50 greater than 50 µM.
For `O=C(NC1CC1)c1cc2c(s1)-c1cnccc1N(C(=O)c1ccc(NC(=O)c3cccnc3N3CCCC3)cc1)CC2`, the EC50 was greater than 50 µM.
With `O=C(NC1CC1)c1cc2c(s1)-c1cccnc1N(C(=O)c1ccc(NC(=O)c3cccnc3N3CCCC3)cc1)CC2` the EC50 was greater than 50 µM.
Compound `O=C(NC1CC1)c1cc2n(n1)CCN(C(=O)c1ccc(NC(=O)c3cccnc3N3CCCC3)cc1)c1ccccc1-2` has an EC50 of 50 µM.
With `O=C(NC1CC1)c1cn2c(n1)-c1ccccc1N(C(=O)c1ccc(NC(=O)c3cccnc3N3CCCC3)cc1)CC2` the EC50 was 50 µM.
For `O=C(NC1CC1)c1cc2c(s1)-c1ccccc1N(C(=O)c1ccc(NC(=O)c3cccnc3N3CCOCC3)cc1)CC2`, the EC50 was 17 µM.

System: not listed separately
Assay: Aqueous solubility of the compound
Format: physicochemical
Details: buffer
`O=C(NC1CC1)c1cc2c(s1)-c1ccccc1N(C(=O)c1ccc(NC(=O)c3cccnc3N3CCC4(CCOCC4)CC3)cc1)CC2` showed a solubility of less than 1 µM.
Compound `O=C(NC1CC1)c1cc2c(s1)-c1ccccc1N(C(=O)c1ccc(NC(=O)c3cccnc3N3CC4(CCOCC4)C3)cc1)CC2` has a solubility of less than 1 µM.
For `O=C(NC1CC1)c1cc2c(s1)-c1ccccc1N(C(=O)c1ccc(NC(=O)c3ccncc3N3CCC4(CC3)COC4)cc1)CC2`, the solubility was less than 1 µM.
With `O=C(NC1CC1)c1cc2c(s1)-c1ccccc1N(C(=O)c1ccc(NC(=O)c3cnccc3N3CCC4(CC3)COC4)cc1)CC2` the solubility was 9 µM (≈ 5.7 µg/mL).
Compound `O=C(NC1CC1)c1cc2c(s1)-c1ccccc1N(C(=O)c1ccc(NC(=O)c3ncccc3N3CCC4(CC3)COC4)cc1)CC2` has a solubility of less than 1 µM.
In the case of `O=C(NC1CC1)c1cc2c(s1)-c1ccccc1N(C(=O)c1ccc(NC(=O)c3ccccc3N3CCC4(CC3)COC4)cc1)CC2`, the solubility is reported as less than 1 µM.
Compound `COc1ccc(C(=O)Nc2ccc(C(=O)N3CCc4cc(C(=O)NC5CC5)sc4-c4ccccc43)cc2)c(N2CCC3(CC2)COC3)n1` has a solubility of less than 1 µM.
Compound `O=C(NC1CC1)c1cc2c(s1)-c1ccccc1N(C(=O)c1ccc(NC(=O)c3cccnc3N3CCCC3)nc1)CC2` has a solubility of 3 µM (≈ 1.74 µg/mL).
For `O=C(NC1CC1)c1cc2c(s1)-c1cnccc1N(C(=O)c1ccc(NC(=O)c3cccnc3N3CCCC3)cc1)CC2`, the solubility was 1 µM (≈ 0.579 µg/mL).
In the case of `O=C(NC1CC1)c1cc2c(s1)-c1cccnc1N(C(=O)c1ccc(NC(=O)c3cccnc3N3CCCC3)cc1)CC2`, the solubility is reported as 10 µM (≈ 5.79 µg/mL).
Compound `O=C(NC1CC1)c1cc2n(n1)CCN(C(=O)c1ccc(NC(=O)c3cccnc3N3CCCC3)cc1)c1ccccc1-2` has a solubility of 32 µM (≈ 18 µg/mL).
Work on `O=C(NC1CC1)c1cn2c(n1)-c1ccccc1N(C(=O)c1ccc(NC(=O)c3cccnc3N3CCCC3)cc1)CC2` yielded a solubility of 121 µM (≈ 68 µg/mL).
In the case of `O=C(NC1CC1)c1cc2c(s1)-c1ccccc1N(C(=O)c1ccc(NC(=O)c3cccnc3N3CCOCC3)cc1)CC2`, the solubility is reported as 36 µM (≈ 21.4 µg/mL).

System: Respiratory syncytial virus
Assay: Antiviral activity against Respiratory syncytial virus A2 infected in hamster BHK21 cells after 2 days by luciferase reporter gene assay
Format: functional, organism-based
Details: human respiratory syncytial virus, A2, BHK-21, 48 h
Compound `O=C(NC1CC1)c1cc2c(s1)-c1ccccc1N(C(=O)c1ccc(NC(=O)c3cccnc3N3CCC4(CCOCC4)CC3)cc1)CC2` has an EC50 of 0.04 µM.
Work on `O=C(NC1CC1)c1cc2c(s1)-c1ccccc1N(C(=O)c1ccc(NC(=O)c3cccnc3N3CC4(CCOCC4)C3)cc1)CC2` yielded an EC50 of less than 0.007 µM.
With `O=C(NC1CC1)c1cc2c(s1)-c1ccccc1N(C(=O)c1ccc(NC(=O)c3ccncc3N3CCC4(CC3)COC4)cc1)CC2` the EC50 was 0.16 µM.
`O=C(NC1CC1)c1cc2c(s1)-c1ccccc1N(C(=O)c1ccc(NC(=O)c3cnccc3N3CCC4(CC3)COC4)cc1)CC2` showed an EC50 of 0.57 µM.
`O=C(NC1CC1)c1cc2c(s1)-c1ccccc1N(C(=O)c1ccc(NC(=O)c3ncccc3N3CCC4(CC3)COC4)cc1)CC2` showed an EC50 of 0.35 µM.
With `O=C(NC1CC1)c1cc2c(s1)-c1ccccc1N(C(=O)c1ccc(NC(=O)c3ccccc3N3CCC4(CC3)COC4)cc1)CC2` the EC50 was 0.19 µM.
In the case of `COc1ccc(C(=O)Nc2ccc(C(=O)N3CCc4cc(C(=O)NC5CC5)sc4-c4ccccc43)cc2)c(N2CCC3(CC2)COC3)n1`, the EC50 is reported as 0.02 µM.
Work on `O=C(NC1CC1)c1cc2c(s1)-c1ccccc1N(C(=O)c1ccc(NC(=O)c3cccnc3N3CCCC3)nc1)CC2` yielded an EC50 greater than 50 µM.
With `O=C(NC1CC1)c1cc2c(s1)-c1cnccc1N(C(=O)c1ccc(NC(=O)c3cccnc3N3CCCC3)cc1)CC2` the EC50 was 2.2 µM.
For `O=C(NC1CC1)c1cc2c(s1)-c1cccnc1N(C(=O)c1ccc(NC(=O)c3cccnc3N3CCCC3)cc1)CC2`, the EC50 was 8.6 µM.
For `O=C(NC1CC1)c1cc2n(n1)CCN(C(=O)c1ccc(NC(=O)c3cccnc3N3CCCC3)cc1)c1ccccc1-2`, the EC50 was 9 µM.
Work on `O=C(NC1CC1)c1cn2c(n1)-c1ccccc1N(C(=O)c1ccc(NC(=O)c3cccnc3N3CCCC3)cc1)CC2` yielded an EC50 of 22 µM.
Work on `O=C(NC1CC1)c1cc2c(s1)-c1ccccc1N(C(=O)c1ccc(NC(=O)c3cccnc3N3CCOCC3)cc1)CC2` yielded an EC50 of 0.63 µM.

System: not listed separately
Assay: Cytotoxicity against human Hep2 cells
Format: cell-based, HEp-2
Details: not given
Compound `O=C(NC1CC1)c1cc2c(s1)-c1ccccc1N(C(=O)c1ccc(NC(=O)c3cccnc3N3CCC4(CCOCC4)CC3)cc1)CC2` has a CC50 greater than 50 µM.
In the case of `O=C(NC1CC1)c1cc2c(s1)-c1ccccc1N(C(=O)c1ccc(NC(=O)c3cccnc3N3CC4(CCOCC4)C3)cc1)CC2`, the CC50 is reported as greater than 50 µM.
Work on `O=C(NC1CC1)c1cc2c(s1)-c1ccccc1N(C(=O)c1ccc(NC(=O)c3ccncc3N3CCC4(CC3)COC4)cc1)CC2` yielded a CC50 of 4.8 µM.
In the case of `O=C(NC1CC1)c1cc2c(s1)-c1ccccc1N(C(=O)c1ccc(NC(=O)c3cnccc3N3CCC4(CC3)COC4)cc1)CC2`, the CC50 is reported as 34 µM.
`O=C(NC1CC1)c1cc2c(s1)-c1ccccc1N(C(=O)c1ccc(NC(=O)c3ncccc3N3CCC4(CC3)COC4)cc1)CC2` showed a CC50 of 43 µM.
In the case of `O=C(NC1CC1)c1cc2c(s1)-c1ccccc1N(C(=O)c1ccc(NC(=O)c3ccccc3N3CCC4(CC3)COC4)cc1)CC2`, the CC50 is reported as greater than 50 µM.
Work on `COc1ccc(C(=O)Nc2ccc(C(=O)N3CCc4cc(C(=O)NC5CC5)sc4-c4ccccc43)cc2)c(N2CCC3(CC2)COC3)n1` yielded a CC50 greater than 50 µM.
Work on `O=C(NC1CC1)c1cc2c(s1)-c1ccccc1N(C(=O)c1ccc(NC(=O)c3cccnc3N3CCOCC3)cc1)CC2` yielded a CC50 greater than 50 µM.
